Reference: ChEMBL document CHEMBL1132906, “Squalamine analogues as potential anti-trypanosomal and anti-leishmanial compounds” (2000)
Where “and” joins values, the source holds several entries; their conditions need not be identical. Identical values can stand only once. Calls of active or inactive are those of the source. The rule behind the calls is not given here.

How the values were obtained:
Trypanosoma cruzi [1] = experiment: The compound was evaluated for its inhibitory activity against Trypanosoma cruzi; type: functional; settings: read-out: ED50 (the source's name)
Trypanosoma cruzi [2] = experiment: The compound was evaluated for its inhibitory activity against Trypanosoma cruzi (toxic effect on macrophages); type: functional; settings: read-out: ED50 (the source's name)
Leishmania donovani = experiment: The compound was evaluated for its inhibitory activity against Leishmania donovani; type: functional; settings: read-out: ED50 (the source's name)
Trypanosoma brucei [3] = experiment: The compound was evaluated for its inhibitory activity against Trypanosoma brucei; type: functional; settings: read-out: ED50 (the source's name)
[4] = The compound was evaluated for its toxicity against KB cells; type: functional; settings: Homo sapiens, read-out: ED50 (the source's name)
Trypanosoma brucei [5] = experiment: The compound was evaluated for its inhibitory activity against Trypanosoma brucei (indicate results of two experiments); type: functional; settings: read-out: ED50 (the source's name)
Mus musculus [6] = experiment: Percent reduction (in vivo) against mice infected with Leishmania donovani after intraperitoneal administration of compound (50 mg/kg for 5 days); type: functional
Mus musculus [7] = experiment: Inhibitory activity (in vivo) against mice infected with Trypanosoma rhodesiense after intraperitoneal administration of compound (50 mg/kg for 4 days); No effect; type: functional, organism-based
Trypanosoma brucei [8] = experiment: The compound was evaluated for the inhibition of Trypanosoma brucei at 1 (ug/ml).; type: functional

Row | EC50 (Trypanosoma cruzi [1]) | EC50 (Leishmania donovani) [µM] | EC50 (Trypanosoma brucei [3]) | EC50 (Trypanosoma brucei [5]) [µM] | EC50 (Trypanosoma brucei [3]; Trypanosoma brucei) [µM] | SMILES | EC50 (Trypanosoma cruzi [2]) [µM] | EC50 [4] [µM] | Reduction (Mus musculus [6]) [%] | Activity (Mus musculus [7]) | Inhibition (Trypanosoma brucei [8]) [%]
1 | 7.45 µg/mL |  |  |  |  | O=C(Cn1ccnc1[N+](=O)[O-])NCc1ccccc1 [BENZNIDAZOLE] |  |  |  |  | 
2 |  | 44.7 | 1.9 µM and 0.63 µM |  |  | CC(C(=O)NCCCNCCCCN)[C@H]1CCC2C3CC=C4C[C@@H](O)CC[C@]4(C)C3CC[C@@]21C (stereo partly drawn) | > 63 | 3.3 |  |  | 
3 | > 36 µM | 12.6 |  | 0.6 |  | CC(C(=O)NCCCN(CCCCN(CCCNC(=O)OC(C)(C)C)C(=O)OC(C)(C)C)C(=O)OC(C)(C)C)[C@H]1CCC2C3CC=C4C[C@@H](O)CC[C@]4(C)C3CC[C@@]21C (stereo partly drawn) |  | 27 |  |  | 
4 |  | 5 | 1.1 µM |  | 0.56 | CC(C(=O)NCCCNCCCCNCCCN)[C@H]1CCC2C3CC=C4C[C@@H](O)CC[C@]4(C)C3CC[C@@]21C (stereo partly drawn) | > 57 | 15 | 16 | inactive | 
5 |  | 4.9 |  | > 36 |  | CC(C(=O)NCCCN(CCCCNC(=O)OC(C)(C)C)C(=O)OC(C)(C)C)[C@H]1CCC2C3CC=C4C[C@@H](OS(=O)(=O)O)CC[C@]4(C)C3CC[C@@]21C (stereo partly drawn) | > 36 | > 360 |  |  | 
6 | > 42 µM | 17.3 |  | 2.6 |  | CC(=O)O[C@H]1CC[C@@]2(C)C(=CCC3C2CC[C@@]2(C)C3CC[C@@H]2C(C)C(=O)NCCCN(CCCCNC(=O)OC(C)(C)C)C(=O)OC(C)(C)C)C1 (stereo partly drawn) |  | 111 |  |  | 
7 |  |  |  |  |  | N=C(N)c1ccc(OCCCCCOc2ccc(C(=N)N)cc2)cc1 [PENTAMIDINE] |  |  |  |  | 100
8 |  | 25.7 | 4.7 µM and 1.5 µM |  |  | CC(C(=O)NCCCN(CCCCNC(=O)OC(C)(C)C)C(=O)OC(C)(C)C)[C@H]1CCC2C3CC=C4C[C@@H](O)CC[C@]4(C)C3CC[C@@]21C (stereo partly drawn) | > 15 | 65 |  |  | 
9 | > 34 µM | 4.7 | 0.57 µM |  | 1.1 | CC(=O)O[C@H]1CC[C@@]2(C)C(=CCC3C2CC[C@@]2(C)C3CC[C@@H]2C(C)C(=O)NCCCN(CCCCN(CCCNC(=O)OC(C)(C)C)C(=O)OC(C)(C)C)C(=O)OC(C)(C)C)C1 (stereo partly drawn) |  | 31 |  |  | 
10 | 13.5 µM | 39.9 |  | > 53 |  | CC(C(=O)NCCCNCCCCN)[C@H]1CCC2C3CC=C4C[C@@H](OS(=O)(=O)O)CC[C@]4(C)C3CC[C@@]21C (stereo partly drawn) |  | > 526 |  |  | 
